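Where inhibition never reached the appropriate level, the endpoint shown equals the highest concentration tested. Otherwise, values were interpolated linearly from a five-concentration, 48-hour dose response in 96-well plates. GI50 marks 50% less growth. Definition used: TGI = concentration required for complete inhibition of growth.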
System: MDA-MB-468 breast
Test: growth of human tumour cells (NCI), 48 h

Structure (SMILES) | TGI [nM] | GI50 [nM]
COc1ccc(C2NN=C3c4ccccc4CCC32)cc1 (centres undefined) | 41.6 | 
O=c1cc(-c2ccccc2)[nH]c2c1CCCC2 | 4990 | 1570
COC1=C(OC)C(=O)C(C/C=C(\C)CC/C=C(\C)CC/C=C(\C)CC/C=C(\C)CC/C=C(\C)CC/C=C(\C)CC/C=C(\C)CC/C=C(\C)CC/C=C(\C)CCC=C(C)C)=C(C)C1=O | > 100000 | > 100000
COc1ccc(Nc2ncnc3ccc(-c4cncc(NS(C)(=O)=O)c4)cc23)cc1Cl | 3100 | 785
O=C(O)COc1ccc(OCC(=O)O)cc1 | 2090 | 326
CN1CCN(Cc2ccc(NC(=O)c3[nH]ncc3Nc3ncnc4[nH]ccc34)cc2)CC1 | 562 | 247
Cc1c(Nc2nccc3cc(CN4CC[C@@H](O)C4)cnc23)cccc1-c1cccc(-c2nc3cc(CN4CC[C@@H](C(=O)O)C4)cc(C#N)c3o2)c1C | 35200 | 11200
CN1CCN(C(=O)c2ccc(NC(=O)Nc3ccc(-c4nc(N5CCOCC5)c5cccn5n4)cc3)cc2)CC1 | 77 | 21
Nc1c(C(=O)c2cccc(C(O)CO)c2)cnn1-c1ccc(F)cc1 (centres undefined) | > 25000 | > 25000
Cc1nn(C)c2ncnc(N/N=C/c3cccc(O)c3O)c12 | 6530 | 2170
O=C1C(N2CCN(CCOCCO)CC2)=C(Cl)C(=O)c2ncccc21 | 39300 | 19300
CCN(CC)CCCNCc1cc(-c2ccccc2)nc2cc(Cl)ccc12 | 3920 | 1930
CC(=O)c1c[nH]c2ccc(-c3ccnc(Nc4ccc(NC(=O)C5CCCC5)c(CN5CCOCC5)c4)n3)cc12 | 77.4 | 21.9
CC1=C(CO)C(=O)O[C@@H]([C@@H](C)[C@H]2CC[C@H]3[C@@H]4C[C@H]5O[C@]56[C@@H](O)C=CC(=O)[C@]6(C)[C@H]4CC[C@]23C)C1 | 1210 | 278
Nc1nc(Cl)nc2c1ncn2C1OC(CO)C(O)C1F (centres undefined) | 891 | 285
COc1cc2nc(N3CCC[C@H](NC4=CC(=O)c5ccccc5C4=O)C3)nc(N)c2cc1OC | 3530 | 1790
COC(=O)CCC(=O)NC1=C(Nc2ccccc2)C(=O)c2ccccc2C1=O | 10500 | 3040
O=C1NC(=O)C(c2cccc(Cl)c2)=C1Nc1ccc(Cl)c(C(=O)O)c1 | > 25000 | > 25000
Cc1cc(=O)[nH]c(N/N=C/c2ccccc2O)n1 | 46900 | 3030
CN(C)CCN1C(=O)c2cccc3c(/C=C/CN4C(=O)c5cccc6cccc(c56)C4=O)ccc(c23)C1=O | 34300 | 14000

Source: PubChem BioAssay (NCI)
